Data on three substances can be found in US11505574B2, “Modulation of P53 for the treatment of cancer” (THE REGENTS OF THE UNIVERSITY OF CALIFORNIA, priority 2016, dated 2022).

Data set [1] concerns p53. Kind of data set: Western blot for p53 in MCF7 cells treated with oligonucleotides. The class given is cell-based, human. To be noted: MCF7 cells (FIG. 29A).
The subject of a further data set is mutant p53 (R248W). The data set can be described thus: Western blot for mutant p53 in MIA-PaCa-2 cells treated with oligonucleotides. The class given is cell-based. The following applies: p53 R248W (FIGS. 29A, 29B). The text has this:
FIGS. 29A-29C show data illustrating the effects of oligonucleotides of the present invention with respect to wild type and mutant p53. […] Oligonucleotide sequences were as follows: M3, SEQ ID NO:14; 14A/G, SEQ ID NO:20; 14U/G, SEQ ID NO:49; 15A, SEQ ID NO:21; 6A/G, SEQ ID NO:45; 6U/G, SEQ ID NO:46; 10A/G, SEQ ID NO:47; 10 U/G, SEQ ID NO:48.
FIGS. 29A and 29B show the results of experiments exploring the effects of oligonucleotides of the present invention on wild type and mutant p53. Oligonucleotides M3, 14A/G, 15A, and 6U/G were used to treat MCF7 cells expressing wild type p53 and MIA-PaCa-2 cells expressing mutant p53 (R248W). […] The effect was limited to the 6U/G oligonucleotide. […] Oligonucleotide sequences were as follows: M3, SEQ ID NO:14; 14A/G, SEQ ID NO:20; 14U/G, SEQ ID NO:49; 15A, SEQ ID NO:21; 6A/G, SEQ ID NO:45; 6U/G, SEQ ID NO:46; 10A/G, SEQ ID NO:47; 10 U/G, SEQ ID NO:48.
In general terms: A western blot detects proteins with antibodies after separation by electrophoresis.

Data set [2] has as its system p53. Kind of data set: Western blot for p53 and downstream targets in RKO cells treated with peptides. It is filed as cell-based, human.
For a further data set, the target named is eIF4E (His-tagged) (Homo sapiens, UniProt P06730). Kind of data set: Pulldown of His-tagged eIF4E by peptides bound to TentaGel resin. It is filed as binding. The following applies: linear and cyclized Pep8 on TentaGel resin; 2 μg purified eIF4E overnight (FIG. 36A). The protocol: The peptides bound to Tentagel™ resin were incubated with His-eIF4E overnight and then washed extensively before being eluted with SDS-PAGE lysis buffer followed by Western blot assay for His-eIF4E. Lane #1: peptide-8 (SEQ ID NO:1); Lane #2: Cyc-8 peptide (SEQ ID NO:5); Lane #3: kAmi-8 peptide (SEQ ID NO:8); Lane #4: Ami-8 peptide (SEQ ID NO:7).
Chain of eIF4E (His-tagged) (P06730 whole entry): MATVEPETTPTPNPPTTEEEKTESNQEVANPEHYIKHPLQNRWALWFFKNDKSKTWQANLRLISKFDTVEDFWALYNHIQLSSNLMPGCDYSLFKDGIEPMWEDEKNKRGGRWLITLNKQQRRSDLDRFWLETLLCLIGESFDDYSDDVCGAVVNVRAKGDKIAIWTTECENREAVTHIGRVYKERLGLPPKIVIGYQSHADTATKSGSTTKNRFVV
For the experiments shown in FIG. 36A, linear and cyclized versions of Pep8 (i.e., peptides having the amino acid sequences set forth in SEQ ID NOS:1, 5, 7, and 8) were synthesized and bound to TentaGel resin. Resin was washed 3× with 1× lysis buffer, and then incubated with 1× lysis buffer+0.3% BSA for 1 hour while rotating in a cold room. Next, resin was incubated with 1× lysis buffer+0.3% BSA+2 μg purified eIF4E (His-tagged) overnight. Next, resin was washed with 1× lysis buffer+0.3% BSA 3 times, followed by washing with 1× lysis buffer with no Triton X-100 three times. Finally, elution was performed with 1×SDS-loading buffer (70 μl) to load all onto a 12% SDS-PAGE gel for Western blot for His-tagged eIF4E.

A further data set deals with MCF7 tumor spheres. The data set can be described thus: MCF7 tumor sphere assay. It is filed as cell-based, human. To be noted: MCF7 cells; 150 nM with 3 μg PEP1; 3.125 ng/mL doxorubicin; 7 days (FIG. 36C). The protocol:
For the experiments shown in FIG. 34E, MCF7 cells were plated at a density of 20,000 cells per well using 2 mL Mammocult media in 6-well ultra-low adherent plates. The following day, cells were treated with Pen-Ctrl or Pen-Pep8 at a concentration of 5 μM. Peptides were added to each well for 20 minutes followed by 6.25 ng/mL doxorubicin. Cells were grown for 7 days and then the number of tumor spheres that were larger than 50 μm in diameter were counted (i.e., 20 10× photos were randomly taken and tumor spheres counted from the digital photos). For the graph shown in FIG. 34F, statistical analysis was performed using the student's t-test (n=3; *p≤0.05).
For the experiments shown in FIG. 36C, MCF7 cells were plated at a density of 20,000 cells per well using 2 mL Mammocult media in 6-well ultra-low adherent plates. The following day, cells were treated with 150 nM Cyc-Ctrl or Cyc-Pep8 (SEQ ID NO:5). 150 nM Cyc-Ctr/Pep8 was incubated in 100 μL serum-free DMEM with 3 μg PEP1 for 25 minutes before being added to the cells. After 20 minutes, 3.125 ng/mL doxorubicin was added to the cells for 7 days. Cells were grown for 7 days and then tumor spheres were counted that were larger than 50 μm in diameter (i.e., 20 10× photos were randomly taken and tumor spheres were counted from the digital photos).

Data set [3] has as its system p53. Kind of data set: Western blot for p53 and downstream targets in MCF7 cells treated with peptides. The class given is cell-based, human. To be noted: MCF7 cells; 2.5 μM; 18 hours (FIG. 32C).
A further data set deals with MCF7 cells. The data set can be described thus: MCF7 cell colony formation assay (peptides). It is filed as cell-based, human. To be noted: MCF7 cells; 5 μM; 6.25 ng/mL doxorubicin 48 hours (FIG. 34C). As to the method: In order to test the effect of the RBM38 and eIF4E peptides on cancer cell colony formation, MCF7 cells were seeded in 6-well plates at a density of 1×10^3 cells per well. The following day, cells were treated with peptides. In order to form stable complexes with PEP1, 100 μl of serum-free DMEM was added to individual Eppendorf tubes. Control (SEQ ID NO:11), RBM38, and eIF4E peptides were added at a concentration of 375 nM and then 7.5 μg of PEP1 was added to each peptide (20:1). The complexes were incubated for 20 minutes at room temperature and then added dropwise to cells. Cell media was changed every three days until colonies were visible. The cells were fixed and then stained with crystal violet.
In order to test the effect of a combination treatment comprising peptides of the present invention and a chemotherapeutic agent on cancer cell colony formation, MCF7 cells were seeded in 6-well plates at a density of 1×10^3 cells per well. The following day, cells were treated with peptides. In order to form stable complexes with PEP1, 100 μL of serum-free DMEM was added to individual Eppendorf tubes. Control, RBM38, eIF4E, and peptide-8 peptides were added at a concentration of 375 nM and then 7.5 μg of PEP1 was added to each peptide (20:1). The complexes were incubated for 20 minutes at room temperature and then added dropwise to cells. 20 minutes after addition of peptide complexes, 3.125 ng/mL doxorubicin was added to the cells. Cell media was changed every three days until colonies were visible. The cells were fixed and then stained with crystal violet.
For the experiments shown in FIG. 34C, MCF7 cells were seeded on a 6-well plate at a seed density of 1×10^3 cells per well. The following day the cells were treated with 5 μM Pen-Ctrl or 5 μM Pen-Pep23. The following day, 6.25 ng/mL doxorubicin was added to the cells for 48 hours. Subsequently, the cell media was changed every 3 days until colonies were visible. The cells were fixed and stained with crystal violet.

A further data set relates to RKO cells. Kind of data set: RKO cell colony formation assay (peptides). To be noted: 5 μM, 3.125 ng/mL doxorubicin 48 hours (FIG. 34D). It is filed as cell-based, human. As to the method:
For the experiments shown in FIG. 34D, RKO cells were seeded on a 6-well plate at a seed density of 2×10^3 cells per well. The following day the cells were treated with 5 μM Pen-Ctrl, 5 μM Pen-Pep23, or 5 μM Pen-Pep8. The following day, 3.125 ng/mL doxorubicin was added to the cells for 48 hours. Subsequently, the cell media was changed every 3 days until colonies were visible. The cells were fixed and stained with crystal violet.

Data set [4] relates to tumor cell colony formation. Kind of data set: Tumor cell colony formation assay, cell line not stated (FIGS. 13C, 20D). The class given is cell-based. To be noted: with and without doxorubicin 6.25 ng/mL; versus Pen-Ctrl (FIG. 20D).
Data set [5] concerns MIA-PaCa-2 pancreatic cancer cells. The data set can be described thus: MIA-PaCa-2 cell colony formation assay (peptides). The class given is cell-based, human. The following applies: miaPaCa2 cells (mutant p53); 10 μM for 20 minutes then 0.25 ng/mL doxorubicin 18 hours (FIG. 37D). The text has this:
[…] […] After colonies formed they were fixed (i.e., using 7:1 MeOH:glacial acetic acid) and stained with crystal violet.

For another data set, the system named is HaCaT cells. Kind of data set: HaCaT cell colony formation assay. To be noted: HaCaT cells (mutant p53); 10 μM for 20 minutes then 0.5 ng/mL doxorubicin 18 hours (FIG. 37D). It is filed as cell-based. As to the method: For the experiments shown in FIG. 37D, HaCaT and MiaPaCa2 cells were grown in 6-well plates at 500 cells per well. The following day, 10 μM Pen-Ctrl (SEQ ID NO:10), Pen-Pep23 (SEQ ID NO:9), or Pen-Pep8 (SEQ ID NO:50) were added to the cells for 20 minutes followed by treatment with 0.5 ng/mL doxorubicin (for HaCaT cells) or 0.25 ng/mL doxorubicin (for miaPaCa2 cells) for 18 hours, then the media was changed to fresh DMEM. After colonies formed they were fixed (i.e., using 7:1 MeOH:glacial acetic acid) and stained with crystal violet.

Bridges are numbered along the chain shown (N, C = ends). Where no end group is shown, it is not given here. [ ]: non-standard residue; d: D form.

With “UUUGUUUUUUGUUU (listed as RNA, chemistry not given here) [6U/G]”, in the data set with p53 [1], the “p53 expression in cells expressing wild type p53” value was “unregulated p53 expression”. For the same substance, the “p53 expression in cells expressing mutant p53” value in the data set with mutant p53 (R248W) is “downregulated expression”.

Turning to “cYPYAASPAc ([dC]YPYAASPA[dC]; disulfide 1-10 (inferred)) [Cyc-8, disulfide cyclic 10-mer of peptide-8]”, the “p53 expression in combination with low-dose doxorubicin, cyclized versus linear peptide” value with p53 [2] (6.25 ng/mL doxorubicin (FIG. 23E)) is listed as “stronger effect in combination with low-dose doxorubicin”. Further, the “upregulation of p53 (Western blot), cyclized versus linear peptide” value in the data set on p53 [2] (25 nM, 50 nM, 150 nM, 375 nM peptide (FIGS. 23A-23D)) is given as “stronger upregulation of p53”. In the data set with p53 [2] (RKO cells, 25 nM, 50 nM, 150 nM or 375 nM with PEP1 at 20:1 molar ratio, 18 hours (FIG. 36B)), the “p53 expression, potency compared to other forms of Pep8 (Western blot)” value was “increased potency compared to other forms of Pep8, as shown by an increase of p53 with the addition of only 25 nM of the peptide”. Moreover, the “protein expression of p53 and downstream target MDM2 (Western blot)” value is “enhanced the protein expression of p53 and the downstream target MDM2” in the data set on p53 [2] (RKO cells, 375 nM peptide with 7.5 μg PEP1 (20:1), 18 hours (FIG. 1E)); “able to increase p53 protein expression” with p53 [2] (RKO cells, 375 nM peptide with 7.5 μg PEP1 (20:1), 18 hours (FIG. 1E), listed as cyclized version of peptide-8). Also, the “binding of His-tagged eIF4E (pulldown, Western blot)” value with eIF4E (His-tagged) is given as “bound the most eIF4E”. Also, the “tumor spheres larger than 50 μm in diameter, sensitization to low-dose doxorubicin” value in the data set with MCF7 tumor spheres is “sensitized MCF7 tumor spheres to low-dose doxorubicin treatment”.

As to “RQIKIWFQNRRMKWKKIGYQSHADTATKSGSTTKNRFVV [Pen-eIF4E, Penetratin fused to eIF4E peptide]”, the “p53 expression (Western blot)” value in the data set on p53 [3] was “induced p53 expression”; in the data set on p53 [2] (RKO cells, 2.5 μM, 18 hours (FIG. 32B)), “induced p53 expression”. For the same substance, the “sensitization to low-dose etoposide (p53 Western blot)” value in the data set with p53 [2] (RKO cells, 1.5 μM for 20 minutes then 0.125 ng/mL etoposide 18 hours (FIG. 34I)) is listed as “also to low-dose etoposide”. The “sensitization to low-dose doxorubicin (p53 Western blot)” value with p53 [2] (RKO cells, 1.5 μM for 20 minutes then 6.25 ng/mL doxorubicin 18 hours (FIG. 34I)) was “sensitized to low-dose doxorubicin”. For the same substance, in the data set on p53 [2] (RKO cells, 5 μM Penetratin fusion, 18 hours (FIG. 1F)), the “protein expression of p53 and downstream target MDM2 (Western blot)” value was “enhanced the protein expression of p53 and the downstream target MDM2”. Moreover, the “colony formation, sensitization to low-dose doxorubicin” value in the data set on MCF7 cells was “sensitized MCF7 and RKO cells to low-dose doxorubicin”; with RKO cells, “sensitized MCF7 and RKO cells to low-dose doxorubicin”; in [5] it was “sensitized to low-dose doxorubicin”; in the data set on HaCaT cells it was “sensitized to low-dose doxorubicin”. Further, the “cell colony formation, combination with doxorubicin” value in data set [4] is listed as “striking synergistic effect”.
